Laboratory results: ChEMBL document CHEMBL5126669, “Discovery of 5,7-Dihydro-6H-pyrrolo[2,3-d]pyrimidin-6-ones as Highly Selective CDK2 Inhibitors” (ACS Med Chem Lett, 2022)

How the values were obtained:
Homo sapiens [1] = species on record: Homo sapiens; experiment: Selectivity ratio of IC50 for inhibition of CDK1/cyclin B (unknown origin) to IC50 for inhibition recombinant human N-terminal GST-tagged full-length CDK2/Flag-tagged cyclinE1 expressed in baculovirus expression system
[2] = Intrinsic clearance in human liver microsomes at 1 uM measured upto 30 mins by LC/MS analysis; assay type: ADME, Microsome; conditions: read-out: CLH (converted)
[3] = target: Cyclin-dependent kinase 2/cyclin E1 (Homo sapiens, UniProt P24941); experiment: Inhibition of recombinant human N-terminal GST-tagged full-length CDK2/Flag-tagged cyclinE1 expressed in baculovirus expression system using eIF4E-binding protein-1 peptide as substrate incubated for 1 hr in presence of ATP by HTRF assay
Homo sapiens [4] = species on record: Homo sapiens; experiment: Selectivity ratio of IC50 for inhibition of CDK4/cyclin D1 (unknown origin) to IC50 for inhibition recombinant human N-terminal GST-tagged full-length CDK2/Flag-tagged cyclinE1 expressed in baculovirus expression system
Homo sapiens [5] = species on record: Homo sapiens; experiment: Selectivity ratio of IC50 for inhibition of CDK6/cyclin D1 (unknown origin) to IC50 for inhibition recombinant human N-terminal GST-tagged full-length CDK2/Flag-tagged cyclinE1 expressed in baculovirus expression system
[6] = target: Cyclin-dependent kinase 2 (Homo sapiens, UniProt P24941); experiment: Inhibition of CDK2 in human COV318 cells incubated for overnight in presence of human whole blood by HTRF assay; assay type: cell-based
[7] = target: Cyclin-dependent kinase 1 (Homo sapiens, UniProt P06493); experiment: Inhibition of CDK1 in human OVCAR3 cells incubated for 30 mins in presence of pNPM T199 by western blot analysis; assay type: cell-based, OVCAR-3
[8] = Inhibition of CDK1/cyclin B (unknown origin) in presence of ATP; set-up: species or system Homo sapiens
Homo sapiens [9] = species on record: Homo sapiens; experiment: Selectivity ratio of IC50 for inhibition of CDK1 in human OVCAR3 cells to IC50 for inhibition of CDK2 in human COV318 cells; assay type: cell-based
Cytochrome P450 2C8 = target: T1, Cytochrome P450 2C8 (Homo sapiens, UniProt P10632); experiment: Inhibition of CYP2C8 (unknown origin) at >25 uM; assay type: ADME
T1 sequence (P10632 whole entry): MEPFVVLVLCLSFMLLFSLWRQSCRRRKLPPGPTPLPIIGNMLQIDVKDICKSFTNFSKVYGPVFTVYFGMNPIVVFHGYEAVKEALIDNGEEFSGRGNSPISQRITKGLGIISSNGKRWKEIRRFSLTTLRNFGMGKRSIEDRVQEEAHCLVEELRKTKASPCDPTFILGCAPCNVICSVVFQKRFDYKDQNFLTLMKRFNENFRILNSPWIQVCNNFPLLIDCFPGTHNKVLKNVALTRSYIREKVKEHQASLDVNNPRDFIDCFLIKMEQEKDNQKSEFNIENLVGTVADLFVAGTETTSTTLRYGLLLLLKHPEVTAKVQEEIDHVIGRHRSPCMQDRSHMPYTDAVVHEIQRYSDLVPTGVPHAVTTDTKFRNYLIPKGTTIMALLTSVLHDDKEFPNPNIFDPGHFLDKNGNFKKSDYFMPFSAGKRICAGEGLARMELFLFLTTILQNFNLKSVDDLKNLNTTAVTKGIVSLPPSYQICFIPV

Cytochrome P450 2C9 = Cytochrome P450 2C9 (Homo sapiens, UniProt P11712); experiment: Inhibition of CYP2C9 (unknown origin) at >25 uM; assay type: ADME
[10] = Oral bioavailability in Cynomolgus monkey at 2 mg/kg measured upto 24 hrs by LC-MS/MS analysis; assay type: ADME, organism-based, Macaca fascicularis; conditions: in vivo
Cytochrome P450 1A2 = target: T2, Cytochrome P450 1A2 (Homo sapiens, UniProt P05177); experiment: Inhibition of CYP1A2 (unknown origin) at >25 uM; assay type: ADME
T2 sequence (P05177 whole entry): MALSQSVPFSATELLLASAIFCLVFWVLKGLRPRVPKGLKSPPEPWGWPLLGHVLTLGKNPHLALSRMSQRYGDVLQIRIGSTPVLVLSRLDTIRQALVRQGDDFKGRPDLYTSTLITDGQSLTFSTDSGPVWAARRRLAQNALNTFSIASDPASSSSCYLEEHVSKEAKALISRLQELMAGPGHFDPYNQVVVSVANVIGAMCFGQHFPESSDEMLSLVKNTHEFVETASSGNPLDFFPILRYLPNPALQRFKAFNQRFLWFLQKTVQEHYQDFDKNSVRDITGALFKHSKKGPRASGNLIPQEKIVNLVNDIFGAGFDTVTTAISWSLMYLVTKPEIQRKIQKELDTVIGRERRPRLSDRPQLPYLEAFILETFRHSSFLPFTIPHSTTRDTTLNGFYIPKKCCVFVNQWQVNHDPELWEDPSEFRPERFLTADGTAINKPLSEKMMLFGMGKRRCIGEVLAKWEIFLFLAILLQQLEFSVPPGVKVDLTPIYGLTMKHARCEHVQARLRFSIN

Cytochrome P450 2C19 = Cytochrome P450 2C19 (Homo sapiens, UniProt P33261); experiment: Inhibition of CYP2C19 (unknown origin) at >25 uM; assay type: ADME
[11] = Cmax in Cynomolgus monkey at 2 mg/kg, po measured upto 24 hrs by LC-MS/MS analysis; assay type: ADME, organism-based, Macaca fascicularis; set-up: dose 2 mg/kg, time < 24 hrs, route po; conditions: in vivo
[12] = Volume of distribution at steady state in Sprague-Dawley rat at 0.5 mg/kg, iv measured upto 24 hrs by LC-MS/MS analysis; assay type: ADME, organism-based; conditions: Sprague-Dawley, in vivo, read-out: Vdss
[13] = AUC in Sprague-Dawley rat at 3 mg/kg, po measured upto 24 hrs by LC-MS/MS analysis; assay type: ADME, organism-based; set-up: dose 3 mg/kg, time < 24 hrs, route po; conditions: in vivo
[14] = Oral bioavailability in Sprague-Dawley rat at 3 mg/kg measured upto 24 hrs by LC-MS/MS analysis; assay type: ADME, organism-based; conditions: in vivo
Cytochrome P450 3A4 = Cytochrome P450 3A4 (Homo sapiens, UniProt P08684); experiment: Inhibition of CYP3A4 (unknown origin) at >25 uM; assay type: ADME
hERG (KCNH2) = hERG (KCNH2) (Homo sapiens, UniProt Q12809); experiment: Displacement of [3H]Dofetilide from human ERG at 10 uM incubated for 24 hrs by filter binding assay relative to control; assay type: toxicity; conditions: probe [3H]dofetilide
[15] = Volume of distribution at steady state in Cynomolgus monkey at 0.3 mg/kg, iv measured upto 24 hrs by LC-MS/MS analysis; assay type: ADME, organism-based, Macaca fascicularis; conditions: in vivo, read-out: Vdss
[16] = Hepatic blood flow in Sprague-Dawley rat at 0.5 mg/kg, iv measured upto 24 hrs by LC-MS/MS analysis; assay type: ADME, organism-based; conditions: in vivo
Cytochrome P450 2D6 = Cytochrome P450 2D6 (Homo sapiens, UniProt P10635); experiment: Inhibition of CYP2D6 (unknown origin) at >25 uM; assay type: ADME
[17] = AUC in Cynomolgus monkey at 2 mg/kg, po measured upto 24 hrs by LC-MS/MS analysis; assay type: ADME, organism-based, Macaca fascicularis; set-up: dose 2 mg/kg, time < 24 hrs, route po; conditions: in vivo
Cytochrome P450 2B6 = target: T3, Cytochrome P450 2B6 (Homo sapiens, UniProt P20813); experiment: Inhibition of CYP2B6 (unknown origin) at >25 uM; assay type: ADME
T3 sequence (P20813 whole entry): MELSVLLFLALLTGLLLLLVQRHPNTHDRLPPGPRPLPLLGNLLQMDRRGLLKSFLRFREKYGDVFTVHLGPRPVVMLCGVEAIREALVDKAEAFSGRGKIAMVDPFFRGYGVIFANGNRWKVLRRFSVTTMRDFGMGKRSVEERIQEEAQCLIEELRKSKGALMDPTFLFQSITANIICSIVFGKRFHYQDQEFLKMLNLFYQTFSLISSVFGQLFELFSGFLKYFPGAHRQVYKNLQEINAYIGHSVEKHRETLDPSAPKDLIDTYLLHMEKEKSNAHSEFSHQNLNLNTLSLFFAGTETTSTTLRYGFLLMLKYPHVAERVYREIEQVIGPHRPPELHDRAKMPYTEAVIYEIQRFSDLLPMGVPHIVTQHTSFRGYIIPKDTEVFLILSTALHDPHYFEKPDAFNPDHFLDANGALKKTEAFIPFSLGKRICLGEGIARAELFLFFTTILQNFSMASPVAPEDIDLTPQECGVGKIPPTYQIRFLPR

[18] = Cmax in Sprague-Dawley rat at 3 mg/kg, po measured upto 24 hrs by LC-MS/MS analysis; assay type: ADME, organism-based; set-up: dose 3 mg/kg, time < 24 hrs, route po; conditions: in vivo
[19] = Hepatic blood flow in Cynomolgus monkey at 0.3 mg/kg, iv measured upto 24 hrs by LC-MS/MS analysis; assay type: ADME, organism-based, Macaca fascicularis; conditions: in vivo
Homo sapiens [20] = species on record: Homo sapiens; experiment: Selectivity ratio of IC50 for inhibition of CDK1 (unknown origin) to IC50 for inhibition recombinant human N-terminal GST-tagged full-length CDK2/Flag-tagged cyclinE1 expressed in baculovirus expression system; conditions: tested as the 2H-labelled form
Homo sapiens [21] = species on record: Homo sapiens; experiment: Selectivity ratio of IC50 for inhibition of CDK4 (unknown origin) to IC50 for inhibition recombinant human N-terminal GST-tagged full-length CDK2/Flag-tagged cyclinE1 expressed in baculovirus expression system; conditions: tested as the 2H-labelled form
Homo sapiens [22] = species on record: Homo sapiens; experiment: Selectivity ratio of IC50 for inhibition of CDK9 (unknown origin) to IC50 for inhibition recombinant human N-terminal GST-tagged full-length CDK2/Flag-tagged cyclinE1 expressed in baculovirus expression system; conditions: tested as the 2H-labelled form
Homo sapiens [23] = species on record: Homo sapiens; experiment: Selectivity ratio of IC50 for inhibition of CDK6 (unknown origin) to IC50 for inhibition recombinant human N-terminal GST-tagged full-length CDK2/Flag-tagged cyclinE1 expressed in baculovirus expression system; conditions: tested as the 2H-labelled form
Homo sapiens [24] = species on record: Homo sapiens; experiment: Selectivity ratio of IC50 for inhibition of CDK7 (unknown origin) to IC50 for inhibition recombinant human N-terminal GST-tagged full-length CDK2/Flag-tagged cyclinE1 expressed in baculovirus expression system; conditions: tested as the 2H-labelled form

Sequence of Cytochrome P450 2D6 (P10635 whole entry): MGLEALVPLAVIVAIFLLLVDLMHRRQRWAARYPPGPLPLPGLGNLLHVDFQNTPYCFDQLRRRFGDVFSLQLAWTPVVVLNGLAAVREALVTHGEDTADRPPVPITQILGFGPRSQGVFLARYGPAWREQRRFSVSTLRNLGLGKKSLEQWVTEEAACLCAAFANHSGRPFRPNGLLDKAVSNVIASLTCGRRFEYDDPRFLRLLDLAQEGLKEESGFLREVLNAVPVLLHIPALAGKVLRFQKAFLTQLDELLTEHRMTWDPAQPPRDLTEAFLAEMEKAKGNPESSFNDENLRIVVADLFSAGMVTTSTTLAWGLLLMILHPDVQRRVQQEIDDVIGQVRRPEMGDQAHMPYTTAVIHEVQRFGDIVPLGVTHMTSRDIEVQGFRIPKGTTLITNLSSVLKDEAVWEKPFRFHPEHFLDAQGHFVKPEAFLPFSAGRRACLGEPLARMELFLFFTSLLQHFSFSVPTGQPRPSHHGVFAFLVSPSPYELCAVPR
Sequence of Cyclin-dependent kinase 1 (P06493 whole entry): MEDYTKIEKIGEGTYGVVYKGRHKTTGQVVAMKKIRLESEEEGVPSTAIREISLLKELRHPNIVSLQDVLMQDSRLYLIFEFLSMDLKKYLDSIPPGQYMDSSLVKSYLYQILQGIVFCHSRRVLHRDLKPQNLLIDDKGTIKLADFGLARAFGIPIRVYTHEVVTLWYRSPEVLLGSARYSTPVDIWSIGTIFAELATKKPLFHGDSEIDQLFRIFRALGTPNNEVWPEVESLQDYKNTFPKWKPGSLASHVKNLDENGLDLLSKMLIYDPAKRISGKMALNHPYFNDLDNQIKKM
Sequence of Cytochrome P450 2C9 (P11712 whole entry): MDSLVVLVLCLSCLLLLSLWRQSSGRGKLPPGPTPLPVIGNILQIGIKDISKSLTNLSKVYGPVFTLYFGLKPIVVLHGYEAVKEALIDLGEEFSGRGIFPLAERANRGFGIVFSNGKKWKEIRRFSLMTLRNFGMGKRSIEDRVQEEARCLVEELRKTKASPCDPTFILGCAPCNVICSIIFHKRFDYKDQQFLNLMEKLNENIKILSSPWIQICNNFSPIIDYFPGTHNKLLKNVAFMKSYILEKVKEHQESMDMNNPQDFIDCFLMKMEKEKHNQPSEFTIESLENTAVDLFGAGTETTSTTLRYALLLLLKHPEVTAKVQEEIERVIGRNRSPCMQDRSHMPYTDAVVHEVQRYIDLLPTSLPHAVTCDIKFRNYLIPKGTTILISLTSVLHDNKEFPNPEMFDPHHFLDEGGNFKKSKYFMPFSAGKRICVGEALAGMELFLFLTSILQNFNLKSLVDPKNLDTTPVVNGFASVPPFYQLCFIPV
Sequence of Cytochrome P450 2C19 (P33261 whole entry): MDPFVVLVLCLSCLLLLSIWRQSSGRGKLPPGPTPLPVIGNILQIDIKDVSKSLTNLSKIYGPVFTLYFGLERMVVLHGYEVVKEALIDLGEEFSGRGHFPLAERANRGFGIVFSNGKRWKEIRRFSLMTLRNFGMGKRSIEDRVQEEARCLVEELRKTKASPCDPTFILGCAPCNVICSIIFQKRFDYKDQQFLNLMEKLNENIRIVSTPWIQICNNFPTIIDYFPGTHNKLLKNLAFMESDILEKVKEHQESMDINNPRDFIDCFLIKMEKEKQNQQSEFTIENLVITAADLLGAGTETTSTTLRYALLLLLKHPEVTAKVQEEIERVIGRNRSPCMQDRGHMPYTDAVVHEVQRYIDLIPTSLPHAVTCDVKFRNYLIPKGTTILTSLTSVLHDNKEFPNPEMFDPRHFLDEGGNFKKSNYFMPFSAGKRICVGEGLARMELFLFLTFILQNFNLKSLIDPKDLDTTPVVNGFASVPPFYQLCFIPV
Sequence of hERG (KCNH2) (Q12809 whole entry): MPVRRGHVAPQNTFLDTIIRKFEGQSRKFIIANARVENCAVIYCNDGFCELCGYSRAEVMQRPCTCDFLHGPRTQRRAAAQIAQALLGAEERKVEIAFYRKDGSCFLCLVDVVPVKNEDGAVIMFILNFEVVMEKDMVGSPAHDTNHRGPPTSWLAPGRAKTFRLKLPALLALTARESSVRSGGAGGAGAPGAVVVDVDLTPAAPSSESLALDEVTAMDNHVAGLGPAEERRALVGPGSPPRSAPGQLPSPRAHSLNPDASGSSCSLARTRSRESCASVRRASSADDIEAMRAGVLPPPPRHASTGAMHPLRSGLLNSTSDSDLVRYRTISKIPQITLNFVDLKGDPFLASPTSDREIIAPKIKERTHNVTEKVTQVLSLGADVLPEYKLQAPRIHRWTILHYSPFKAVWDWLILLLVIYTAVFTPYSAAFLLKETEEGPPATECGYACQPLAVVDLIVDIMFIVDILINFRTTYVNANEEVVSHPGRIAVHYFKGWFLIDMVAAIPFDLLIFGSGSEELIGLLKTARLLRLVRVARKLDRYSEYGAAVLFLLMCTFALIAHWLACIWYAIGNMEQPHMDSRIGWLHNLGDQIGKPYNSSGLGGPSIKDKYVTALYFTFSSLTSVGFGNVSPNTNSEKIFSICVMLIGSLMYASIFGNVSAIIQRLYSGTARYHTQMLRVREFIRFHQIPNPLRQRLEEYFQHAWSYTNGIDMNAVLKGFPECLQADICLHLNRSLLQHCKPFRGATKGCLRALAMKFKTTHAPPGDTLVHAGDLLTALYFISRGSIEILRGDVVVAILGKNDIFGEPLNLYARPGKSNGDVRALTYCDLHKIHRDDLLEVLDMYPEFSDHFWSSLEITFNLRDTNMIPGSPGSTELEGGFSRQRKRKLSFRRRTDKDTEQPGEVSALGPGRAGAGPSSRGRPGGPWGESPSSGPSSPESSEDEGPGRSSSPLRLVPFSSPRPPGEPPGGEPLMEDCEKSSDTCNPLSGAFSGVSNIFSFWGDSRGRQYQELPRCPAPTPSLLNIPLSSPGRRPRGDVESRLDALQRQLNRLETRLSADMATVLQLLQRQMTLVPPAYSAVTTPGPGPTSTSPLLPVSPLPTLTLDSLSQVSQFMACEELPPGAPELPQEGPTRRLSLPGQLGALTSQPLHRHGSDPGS
Sequence of Cytochrome P450 3A4 (P08684 whole entry): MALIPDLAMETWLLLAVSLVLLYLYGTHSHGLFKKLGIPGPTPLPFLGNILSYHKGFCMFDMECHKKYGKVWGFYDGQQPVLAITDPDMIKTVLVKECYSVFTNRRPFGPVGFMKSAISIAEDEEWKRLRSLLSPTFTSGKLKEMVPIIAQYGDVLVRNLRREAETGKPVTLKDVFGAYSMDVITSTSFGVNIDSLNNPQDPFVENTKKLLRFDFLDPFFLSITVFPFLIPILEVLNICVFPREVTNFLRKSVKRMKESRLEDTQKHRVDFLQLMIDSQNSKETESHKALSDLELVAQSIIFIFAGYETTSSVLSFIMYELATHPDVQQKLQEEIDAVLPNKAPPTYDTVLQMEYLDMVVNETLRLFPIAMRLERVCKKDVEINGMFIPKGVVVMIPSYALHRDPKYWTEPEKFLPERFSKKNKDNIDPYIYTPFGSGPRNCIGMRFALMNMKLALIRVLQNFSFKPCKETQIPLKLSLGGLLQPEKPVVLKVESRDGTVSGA

Compound: C[C@@H]1CCC[C@H]1N1C(=O)C2(CC2)c2cnc(Nc3ccc(S(=O)(=O)NCCO)cc3)nc21 (relative stereo)
- Ratio IC50 (Homo sapiens [1]): 250
- predicted hepatic clearance at 1 µM [2]: > 18.3 mL/min/kg
- IC50 [3]: 1.8 nM
- Ratio IC50 (Homo sapiens [4]): 29
- Ratio IC50 (Homo sapiens [5]): 28
- IC50 [6]: 770 nM

Compound: Cc1nn2cnc3[nH]ccc3c2c1C1CCCCC1
- IC50 [3]: 2800 nM

Compound: CS(=O)(=O)N1CCC(Nc2ncc3c(n2)N(C2CCCC2)C(=O)C32CC2)CC1
- IC50 [7]: > 5000 nM
- IC50 [3]: 102 nM
- IC50 [8]: > 5000 nM

Compound: Cc1nn(C)cc1-c1ccnc(Nc2ccc(S(=O)(=O)N3CCOCC3)cc2)n1
- IC50 [3]: 431 nM

Compound: C[C@H]1CCC[C@@H]1N1C(=O)C2(CC2)c2cnc(NC3CCN(S(C)(=O)=O)CC3)nc21 (mixture of isomers)
- IC50 [3]: 7 nM
- Ratio IC50 (Homo sapiens [9]): 77
- IC50 [8]: 540 nM

Compound: CC[C@@H](C(F)F)N1C(=O)C2(CC2)c2cnc(NC3CCN(S(C)(=O)=O)CC3)nc21
- IC50 [3]: 23 nM
- Ratio IC50 (Homo sapiens [9]): 74
- IC50 [8]: 1690 nM

Compound: CS(=O)(=O)N1CCC(Nc2ncc3c(n2)N(C2CCCCC2)C(=O)C32CC2)CC1
- IC50 [3]: 82 nM
- IC50 [8]: > 5000 nM

Compound: [2H]C([2H])([2H])NS(=O)(=O)c1ccc(Nc2ncc3c(n2)N([C@@H]2CCC[C@@H](O)C2)C(=O)C32CC2)cc1
- inhibition (INH) (Cytochrome P450 2C8): Active
- predicted hepatic clearance at 1 µM [2]: 11.7 mL/min/kg
- inhibition (INH) (Cytochrome P450 2C9): Active
- bioavailability [10]: 100%
- inhibition (INH) (Cytochrome P450 1A2): Active
- inhibition (INH) (Cytochrome P450 2C19): Active
- Cmax [11]: 138 nM
- Vd [12]: 1.1 L/kg
- AUC at 24 h [13]: 1.15 µM·h
- bioavailability [14]: 100%
- inhibition (INH) (Cytochrome P450 3A4): Active
- inhibition at 24 h, 10 µM (hERG (KCNH2)): 9.7%
- Vd [15]: 3.5 L/kg
- QH [16]: > 100%
- inhibition (INH) (Cytochrome P450 2D6): Active
- AUC at 24 h [17]: 0.739 µM·h
- inhibition (INH) (Cytochrome P450 2B6): Active
- Cmax [18]: 992 nM
- QH [19]: 70%
- IC50 [6]: 642 nM

Compound: CNS(=O)(=O)c1ccc(Nc2ncc3c(n2)N([C@H]2CCC[C@@H]2C)C(=O)C32CC2)cc1 (relative stereo)
- Ratio IC50 (Homo sapiens [1]): 890
- predicted hepatic clearance at 1 µM [2]: 18.3 mL/min/kg
- IC50 [3]: 0.33 nM
- Ratio IC50 (Homo sapiens [4]): 33
- Ratio IC50 (Homo sapiens [5]): 48
- IC50 [6]: 230 nM

Compound: CNS(=O)(=O)c1ccc(Nc2ncc3c(n2)N([C@@H]2CCC[C@@H](O)C2)C(=O)C32CC2)cc1
- Ratio IC50 (Homo sapiens [1]): 1200
- predicted hepatic clearance at 1 µM [2]: 13.3 mL/min/kg
- Ratio IC50 (Homo sapiens [20]): 1200
- IC50 [3]: 0.25 nM
- Ratio IC50 (Homo sapiens [4]): 1000
- Ratio IC50 (Homo sapiens [5]): 230
- Ratio IC50 (Homo sapiens [21]): 770
- Ratio IC50 (Homo sapiens [22]): 8200
- Ratio IC50 (Homo sapiens [23]): 230
- Ratio IC50 (Homo sapiens [24]): 17000
- IC50 [6]: 670 nM

Compound: CCC1(C)C(=O)N(C2CCCC2)c2nc(NC3CCN(S(C)(=O)=O)CC3)ncc21 (stereo not drawn)
- IC50 [3]: 557 nM
- IC50 [8]: > 5000 nM
